Assay results taken from EP0661259B1, “Substituted (5,6)-dihydronaphthalenyl compounds having retinoid-like activity” (BRISTOL-MYERS SQUIBB COMPANY, priority 1994, dated 1995).
Where two headings read alike, the source gives them in different places.

How the values were obtained:
lung line L2987 = experiment: Cytotoxicity assay (alamarBlue viability); format: cell-based; conditions: Homo sapiens
Description: Figure 1, 2 and 3 are the cytotoxicity dose response curves for lung line L2987. […] Briefly, the assayed involved plating 1000 cells per well in a volume of 120 µL in a 96 well flat-bottom dish (Corning) on day -1. Twenty-four hours later the appropriate dilution of a compound of formula I was added in a volume of 30 µL complete medium (final volume 150 µL). The plates were sealed with a plate sealer (Dynatech Labs) to prevent evaporation. On day 5 the mylar film was removed and 15 µL of sterile alamarBlue was added to each well and the cells were incubated 37 °C 5% CO2 for two hours. Using a Vmax plate reader the optical density for each well was determined having the OD570 subtracted from the OD600. The 100% signal was determined for cells grown in complete medium containing only 0.5% DMSO. All wells were set-up in triplicate and the mean values were plotted in Figures 1, 2 and 3.

rhino mouse = experiment: Rhino mouse utriculi reduction assay; format: in vivo, female hairless rhino mice (hr^rh/hr^rh); conditions: concentration to reach 30% utriculi reduction; topical in ethanol vehicle (50ul) to dorsal area once daily for 5 days; tested range 0.00033 mM to 16.5 mM
Description: Representatives from compounds of formula I were tested for their effect on utriculi reduction on rhino mouse and directly compared to all-trans retinoic acid.
Six to nine week old female hairless rhino mice (hr^rh/hr^rh) were produced in the Bristol-Myers Squibb colony. Test retinoids in ethanol vehicle (50ul) were applied to the dorsal area (approximately 1.5 x 3 cm^2) of rhino mice once daily for 5 days (Monday to Friday). For various retinoids, a dose response was obtained with concentrations ranging from 0.00033 mM to 16.5 mM. The animals were sacrificed on the following Monday by CO2 inhalation. A 7/8" full thickness punch was taken from the central dorsal area of each animal. The epidermis of the biopsy was removed from the dermis after incubation in 0.5% acetic acid overnight at 4°C. The separated epidermis was then fixed in formalin, dehydrated with ethanol, and cleared in xylene. To determine the utriculi diameter, each epidermis sheet was placed on a glass slide in xylene. For each specimen, the diameter of 40 utricules was measured with an image analysis system (IBM PC, Image Measure program and Olympus microscope with video camera). % Utriculi reduction was calculated as (1 -(utriculi diameter in the test group)/(utriculi diammeter in the ethanol control group))× 100% [formula] […]

[1] = L2987, L2987 experiment 2, 1000 cells per well, compound added after 24 h, read on day 5, read-out: IC50

SMILES	IC50 (lung line L2987; L2987)	IC50 (lung line L2987; [1])	ED30 (rhino mouse)
CC1=C(/C=C/C(C)=C/C=C/C(C)=C/C(=O)O)C(C)(C)CCC1 [All trans retinoic acid, reference compound]	68 µM		
CC1(C)CC=C(c2ccccc2)c2cc(C(=O)Nc3ccc(C(=O)O)cc3)ccc21 [I^4a]		28 µM	
CC1(C)CC=C(c2ccccc2)c2cc(C(=O)Oc3ccc(C(=O)O)cc3)ccc21 [I^10a]		47 µM	
CC1(C)CC=C(c2ccccc2)c2cc(C(=O)Sc3ccc(C(=O)O)cc3)ccc21 [I^12a]		> 100 µM	
CC1(C)CC=C(c2ccccc2)c2cc(COc3ccc(C(=O)O)cc3)ccc21 [I^26a, 4-[[[(5,6-Dihydro-5,5-dimethyl-8-phenyl)-2-naphthalenyl]methyl]oxy]benzoic acid]		48 µM	
CC1(C)C=C(c2ccccc2)c2cc(C(=O)Nc3ccc(C(=O)O)cc3)ccc21 [I^30a, 4-[(1,1-Dimethyl-3-phenyl-1H-indene-5-carbonyl)amino]benzoic acid]		60 µM	2.35
CC1(C)C=C(c2ccccc2)c2cc(C=Cc3ccc(C(=O)O)cc3)ccc21 [I^33a, 4-[2-(1,1-dimethyl-3-phenyl-1H-inden-5-yl)vinyl]benzoic acid]			0.86
